Patent US20030199590A1, “Prostaglandin analogues for promotion of hair growth” (priority 2002, published 2003)
pEC50, pIC50, pKi: −log10 of the molar value. Where two headings read alike, the source gives them in different places.

Legend:
FP receptors = target: T1, FP receptors (Bos taurus, UniProt P37289); assay: FP receptor binding assay ([3H]PGF2α, bovine corpus luteum membranes); conditions: for pIC50: Table 1, [3H]PGF2α, bovine corpus luteum membranes, free acid form; for pKi: Table 2, FP receptor binding
T1 construct: Washed total particulate bovine corpus luteum membranes; from tissue; host or cells: bovine corpus luteum membranes
Procedure: Non-specific binding was defined with 1-10 μM unlabeled PGF2α or fluprostenol. The assays were terminated by vacuum filtration (using Whatman GF/B glass fiber filter previously soaked in 0.3% polyethyleneimine) and the data analyzed by a non-linear, iterative, curve-fitting computer program.

[1] = target: T2, FP receptors (Swiss 3T3 cells expressing FP receptors) (Mus musculus, UniProt P43117); assay: FP receptor-mediated phosphoinositide turnover assay; type: cell-based; conditions: for Emax: Swiss-3T3, 1 h, efficacy relative to standard full agonist (100%), read-out: FP functional (%) agonistic activity; for pEC50: [3H]-IPs in Swiss 3T3 cells; for % response: efficacy relative to standard
T2 construct: endogenous in cells; host or cells: Swiss 3T3 cells
Procedure: FP receptor-mediated phosphoinositide turnover assay: [^3H]Inositol phosphates ([^3H]-IPs) produced by agonist-mediated activation of phospholipase C in Swiss 3T3 cells expressing FP receptors were quantified as follows. Confluent 3T3 cells were exposed to 1.0-1.5 μCi [^3H]-myo-inositol (18.3 Ci/mmol) in 0.5 ml DMEM for 24-30 hours at 37° C. Then cells were rinsed once with DMEM/F-12 containing 10 mM LiCl, and the agonist stimulation experiment was performed in 0.5 ml of the same medium to facilitate accumulation of [^3H]-IPs. Cells were exposed to the agonist or solvent for 60 min at 37° C. (triplicate determinations), followed by aspiration of the medium and immediate addition of 1 ml of ice-cold 0.1 M formic acid. The plates were kept cold and then frozen. Samples frozen up to one week were thawed prior to chromatographic separation of radiolabeled components. The cell lysates (0.9 ml) were loaded on columns packed with approximately 1 ml AG 1-X8 anion exchange resin. The elution procedure consisted of a wash with 10 ml of H2O, then 8 ml of 50 mM ammonium formate, and finally 4 ml of 1.2 M ammonium formate with 0.1 M formic acid, which was collected in a scintillation vial. To this eluate was added 15 ml of scintillation fluid and the total [^3H]-IPs determined by scintillation counting on a beta-counter. Data were analyzed by the sigmoidal fit function of the Origin Scientific Graphics software (Microcal Software, Northampton, Mass.) to determine agonist potency (EC50 value) and efficacy, relative to the standard cloprostenol.

[2] = Table 1, read-out: FP functional EC50

T2 sequence (P43117 whole entry): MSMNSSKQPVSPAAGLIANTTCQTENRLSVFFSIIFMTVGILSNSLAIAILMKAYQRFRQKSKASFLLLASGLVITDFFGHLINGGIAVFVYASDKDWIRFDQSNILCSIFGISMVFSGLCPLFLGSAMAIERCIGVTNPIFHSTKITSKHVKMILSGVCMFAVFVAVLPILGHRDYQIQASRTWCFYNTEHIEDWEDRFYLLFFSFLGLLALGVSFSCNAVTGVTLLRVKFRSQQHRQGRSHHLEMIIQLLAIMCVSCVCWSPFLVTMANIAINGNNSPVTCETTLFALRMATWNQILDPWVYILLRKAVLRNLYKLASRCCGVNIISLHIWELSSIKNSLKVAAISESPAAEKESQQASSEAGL
T1 sequence (P37289 whole entry): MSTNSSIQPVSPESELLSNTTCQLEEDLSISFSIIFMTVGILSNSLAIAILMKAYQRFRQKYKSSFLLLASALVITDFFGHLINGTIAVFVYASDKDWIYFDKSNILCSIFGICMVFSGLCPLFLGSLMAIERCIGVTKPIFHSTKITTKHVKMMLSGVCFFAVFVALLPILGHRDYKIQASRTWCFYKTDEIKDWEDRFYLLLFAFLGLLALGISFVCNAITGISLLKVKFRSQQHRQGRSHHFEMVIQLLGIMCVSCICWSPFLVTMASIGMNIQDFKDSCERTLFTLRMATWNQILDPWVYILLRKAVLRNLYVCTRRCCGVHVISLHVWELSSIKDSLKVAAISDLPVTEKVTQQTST

O=C(O)CCC/C=C\C[C@H]1[C@@H](O)CO[C@@H]1/C=C/[C@@H](O)CCc1ccccc1 [Compound 28]
pIC50 (FP receptors): 5.72
Emax ([1]; Table 1): 100%
pEC50 [1, 2]: 7.10

O=C(O)CC/C=C\CC[C@H]1[C@@H](O)CO[C@@H]1/C=C/[C@H](O)COc1cccc(C(F)(F)F)c1 [Compound 51]
pIC50 (FP receptors): 5.00
Emax ([1]; Table 1): 61%
pEC50 [1, 2]: 6.11

O=C(O)CCC/C=C\C[C@H]1CC[C@@H](O)[C@@H]1CC[C@@H](O)CCc1ccccc1 [Compound 2]
pIC50 (FP receptors): 6.51
Emax ([1]; Table 1): 60%
pEC50 [1, 2]: 7.12

O=C(O)CCC/C=C\C[C@H]1[C@@H](O)CO[C@@H]1/C=C/[C@@H](O)COc1ccc(F)cc1 [Compound 37]
pIC50 (FP receptors): 5.85
Emax ([1]; Table 1): 78%
pEC50 [1, 2]: 6.36

O=C(O)CCC/C=C\C[C@@H]1[C@@H](CC[C@@H](F)COc2ccccc2)[C@H](O)C[C@@H]1O [Compound 45]
pIC50 (FP receptors): 7.28
Emax ([1]; Table 1): 79%
pEC50 [1, 2]: 8.02

O=C(O)CC/C=C\CC[C@H]1[C@@H](O)CO[C@@H]1/C=C/[C@H](O)COc1cccc(Cl)c1 [Compound 54]
pIC50 (FP receptors): 6.09
Emax ([1]; Table 1): 71%
pEC50 [1, 2]: 6.60

O=C(O)CCC/C=C\C[C@@H]1[C@@H](/C=C/[C@H](F)COc2ccccc2)[C@H](O)C[C@@H]1O [Compound 60]
pIC50 (FP receptors): 5.95
Emax ([1]; Table 1): 98%
pEC50 [1, 2]: 7.02

O=C(O)CCC/C=C\C[C@@H]1[C@@H](/C=C/[C@@H](F)COc2cccc(Cl)c2)[C@H](O)C[C@@H]1O [Compound 63]
pIC50 (FP receptors): 6.62
Emax ([1]; Table 1): 84%
pEC50 [1, 2]: 8.66

O=C(O)CCCCCC[C@H]1C(=O)CO[C@@H]1/C=C/[C@H](O)COc1ccccc1 [Compound 21]
pIC50 (FP receptors): 4.11
pEC50 [1, 2]: < 5.00

O=C(O)CC/C=C\CC[C@H]1[C@@H](O)CO[C@@H]1/C=C/[C@H](O)COc1ccccc1 [Compound 50]
pIC50 (FP receptors): 5.29
Emax ([1]; Table 1): 59%
pEC50 [1, 2]: 6.60

O=C(O)CCCCCC[C@H]1C(=O)CO[C@@H]1/C=C/[C@@H](O)COc1ccccc1 [Compound 20]
pIC50 (FP receptors): 5.01
Emax ([1]; Table 1): 67%

O=C(O)CCC/C=C\C[C@@H]1[C@@H](OC[C@H](O)COc2ccccc2)[C@H](O)C[C@@H]1O [Compound 70]
pIC50 (FP receptors): 5.97
Emax ([1]; Table 1): 57%
pEC50 [1, 2]: 6.78

O=C(O)CCC/C=C\C[C@H]1[C@@H](O)CO[C@@H]1/C=C/[C@H](O)COc1cccc(C(F)(F)F)c1 [Compound 27]
pIC50 (FP receptors): 4.82
Emax ([1]; Table 1): 43%
pEC50 [1, 2]: 6.05

O=C(O)CCC/C=C\C[C@H]1[C@@H](O)CO[C@@H]1/C=C/[C@H](O)COc1ccc(F)cc1 [Compound 36]
pIC50 (FP receptors): 5.34
Emax ([1]; Table 1): 75%
pEC50 [1, 2]: 5.91

O=C(O)CCC/C=C\C[C@H]1[C@@H](O)CO[C@@H]1/C=C/[C@@H](O)COc1ccccc1 [Compound 33]
pIC50 (FP receptors): 6.19
Emax ([1]; Table 1): 67%
pEC50 [1, 2]: 6.53

O=C(O)CCC/C=C\C[C@@H]1[C@@H](CC[C@@H](O)COc2cccc(Cl)c2)[C@H](O)C[C@@H]1O [Compound 83]
pKi (FP receptors): 7.30
pEC50 ([1]; Table 2, read-out: EC50): 8.40
% response ([1]; Table 2): 100%

O=C(O)CCC/C=C\C[C@@H]1[C@@H](/C=C/[C@H](F)COc2cccc(C(F)(F)F)c2)[C@H](O)C[C@@H]1O [Compound 76]
pIC50 (FP receptors): 5.38
Emax ([1]; Table 1): 44.5%
pEC50 [1, 2]: 6.88

O=C(O)CCC/C=C\C[C@@H]1[C@@H](OC[C@@H](O)COc2ccccc2)[C@H](O)C[C@@H]1O [Compound 69]
pIC50 (FP receptors): 6.56
Emax ([1]; Table 1): 57%
pEC50 [1, 2]: 7.25

O=C(O)CCC/C=C\C[C@@H]1[C@@H](/C=C/[C@H](F)COc2cccc(Cl)c2)[C@H](O)C[C@@H]1O [Compound 62]
pIC50 (FP receptors): 6.74
Emax ([1]; Table 1): 76%
pEC50 [1, 2]: 7.09

O=C(O)CC/C=C\CC[C@H]1[C@@H](O)CO[C@@H]1/C=C/[C@@H](O)COc1cccc(Cl)c1 [Compound 40]
pIC50 (FP receptors): 6.37
Emax ([1]; Table 1): 82%
pEC50 [1, 2]: 7.64

O=C(O)CCC/C=C\C[C@H]1CC[C@@H](O)[C@@H]1/C=C/[C@@H](O)CCc1ccccc1 [Compound 1]
pIC50 (FP receptors): 7.02
Emax ([1]; Table 1): 87.6%
pEC50 [1, 2]: 7.71

O=C(O)CCC/C=C\C[C@H]1[C@@H](O)CO[C@@H]1/C=C/[C@@H](O)COc1cccc(C(F)(F)F)c1 [Compound 26]
pIC50 (FP receptors): 5.74
Emax ([1]; Table 1): 74%
pEC50 [1, 2]: 6.73

O=C(O)CCCCCC[C@@H]1[C@@H](/C=C/[C@H](O)COc2cccc(Cl)c2)[C@H](O)C[C@@H]1O [Compound 87]
pKi (FP receptors): 6.14
pEC50 ([1]; Table 2, read-out: EC50): 7.42
% response ([1]; Table 2): 88%

O=C(O)CCC/C=C\C[C@H]1CC[C@@H](O)[C@@H]1CC[C@@H](O)C1Cc2ccccc2C1 [Compound 11]
pIC50 (FP receptors): 5.72
Emax ([1]; Table 1): 60%
pEC50 [1, 2]: 6.97

O=C(O)CC/C=C\CC[C@@H]1[C@@H](CC[C@@H](F)COc2ccccc2)[C@H](O)C[C@@H]1O [Compound 74]
pIC50 (FP receptors): 6.16
Emax ([1]; Table 1): 67%
pEC50 [1, 2]: 8.06

O=C(O)CCC/C=C\C[C@@H]1[C@@H](OC[C@@H](O)COc2cccc(Cl)c2)[C@H](O)C[C@@H]1O [Compound 65]
pIC50 (FP receptors): 6.27
Emax ([1]; Table 1): 91%
pEC50 [1, 2]: 7.24

O=C(O)CCC/C=C\C[C@H]1[C@@H](O)CO[C@@H]1/C=C/[C@@H](O)COc1cccc(Cl)c1 [Compound 15]
pIC50 (FP receptors): 6.05
Emax ([1]; Table 1): 88%
pEC50 [1, 2]: 7.24

O=C(O)CCC/C=C\C[C@H]1CC[C@@H](O)[C@@H]1/C=C/[C@@H](O)COc1cccc(Cl)c1 [Compound 6]
pIC50 (FP receptors): 8.00
Emax ([1]; Table 1): 100%
pEC50 [1, 2]: 8.59

O=C(O)CCC/C=C\C[C@H]1CC[C@@H](O)[C@@H]1CC[C@@H](O)CCc1cccc(Cl)c1 [Compound 8]
pIC50 (FP receptors): 7.33
Emax ([1]; Table 1): 84%
pEC50 [1, 2]: 8.18

O=C(O)CCC/C=C\C[C@@H]1[C@@H](/C=C/[C@@H](O)COc2cccc(C(F)(F)F)c2)[C@H](O)C[C@@H]1O [Compound 82]
pKi (FP receptors): 7.46
pEC50 ([1]; Table 2, read-out: EC50): 8.42
% response ([1]; Table 2): 96%

O=C(O)CCC/C=C\C[C@@H]1[C@@H](CC[C@H](O)COc2cccc(Cl)c2)[C@H](O)C[C@@H]1O [Compound 84]
pKi (FP receptors): 6.89
pEC50 ([1]; Table 2, read-out: EC50): 6.68
% response ([1]; Table 2): 76%

O=C(O)CCC/C=C\C[C@@H]1[C@@H](CC[C@@H](F)COc2cccc(C(F)(F)F)c2)[C@H](O)C[C@@H]1O [Compound 24]
pIC50 (FP receptors): 6.64
Emax ([1]; Table 1): 85%
pEC50 [1, 2]: 7.90

O=C(O)CCC/C=C\C[C@@H]1[C@@H](/C=C/[C@H](O)COc2cccc(C(F)(F)F)c2)[C@H](O)C[C@@H]1O [Compound 88]
pKi (FP receptors): 6.82
pEC50 ([1]; Table 2, read-out: EC50): 7.94
% response ([1]; Table 2): 99%

O=C(O)CCC/C=C\C[C@@H]1[C@@H](CC[C@@H](F)COc2cccc(Cl)c2)[C@H](O)C[C@@H]1O [Compound 17]
pIC50 (FP receptors): 7.59
Emax ([1]; Table 1): 64%
pEC50 [1, 2]: 8.05

O=C(O)CCCCCC[C@@H]1[C@@H](CC[C@@H](O)COc2cccc(Cl)c2)[C@H](O)C[C@@H]1O [Compound 85]
pKi (FP receptors): 6.66
pEC50 ([1]; Table 2, read-out: EC50): 7.64
% response ([1]; Table 2): 100%

O=C(O)CCC/C=C/C[C@@H]1[C@@H](/C=C/[C@@H](O)COc2cccc(C(F)(F)F)c2)[C@H](O)C[C@@H]1O [Compound 89]
pKi (FP receptors): 6.59
pEC50 ([1]; Table 2, read-out: EC50): 7.39
% response ([1]; Table 2): 96%
